Patent publication US4317770A, “D-amino acid analogs of beta-endorphin” (Hoffmann-La Roche Inc., priority 1977, dated 1982)
Entries after “also recorded” stand apart in the source; their conditions may differ.

What was measured:
[1] = cited from earlier work; for in vivo analgesic activity (duration): injected intracranially / centrally
[2] = system: myenteric plexus longitudinal muscle preparation from guinea pig ileum; test: opiate activity, guinea pig ileum assay (electrically stimulated); format: cell-based; conditions: for IC50: in vitro; for Relative Potency: relative to βc-endorphin = 100; for order of activity in the guinea pig ileum assay: human endorphin analogs vs camel endorphin analogs
Protocol: (§1) The opiate activities of the analogs relative to βc -endorphin were measured in vitro in the guinea pig ileum (Brit. J. Pharmacol. 39, 398 (1970)) and in vivo by icv and iv injections using the tail-flick method (D'Amour and Smith, J. Pharmacol. Exp. Ther. 72,74 (1941). The results are summarized in Tables 2 and 3.
The opiate activity was assayed in vitro by electrically stimulated myenteric plexus longitudinal muscle preparation from guinea pig ileum by the method of Kosterlitz et al., supra.

mice [3] = test: analgesic potency in mice, tail-flick method, iv injection; format: in vivo, mouse; conditions: for inhibition of tail-flick response: iv
Protocol: as §1
(§2) The analgesic properties of β-endorphin and its analogs were also assessed in mice by the tail-flick method of D'Amour and Smith, supra. The peptides, dissolved in saline, were injected either icv in a volume of 5 μl, according to the method described by Haley and McCormick, Brit. J. Pharmacol. 12, 12 (1957) or iv via the tail vein. To evaluate this analgesic response, a control latency (T0) was obtained from the mean of two latencies determined prior to drug injections, and the test latencies (T1) were determined at various times after injection for each animal. "Percent analgesic" was calculated as [(T1 -T0)/[…]]×100, where the cut off time (T2) was 10 sec.

mice [4] = test: analgesic potency in mice, tail-flick method, icv injection; format: in vivo, mouse; conditions: for Relative Potency (analgesic potency): calculated on molar basis using the AD50 of βc-endorphin as 100%; for Relative Potency (analgesic potency) / analgesic activity / AD50: mice, tail-flick; for AD50: 95% confidence limits in parentheses; for order of activity in the mouse tail flick method: human endorphin analogs vs camel endorphin analogs, route not stated
Protocol: as §2

[5] = injected into the peripheral system; cited from earlier work
leucine aminopeptidase = conditions: compared with enkephalin; cited from earlier work

Compound: CC(C)C[C@H](NC(=O)[C@H](Cc1ccccc1)NC(=O)CNC(=O)CNC(=O)[C@@H](N)Cc1ccc(O)cc1)C(=O)O [enkephalin]
- in vivo analgesic activity (duration) [1]: short duration

Compound: [D-Met^5 ]-βc -endorphin [[D-Met^5]-βc -EP]
- IC50 ([2]; guinea pig ileum): 660 nM
- Relative Potency [2]: 4
- inhibition of tail-flick response (mice [3]; even at 120 mg/kg): not active
- Relative Potency (analgesic potency) (mice [4]): 1.0%
- analgesic activity (mice [4]; icv): still possesses analgesic activity
- AD50 (mice [4]; icv): 11.48 (7.17-18.36) μg/25 g mouse

Compound: β-endorphin
- in vivo analgesic activity, peripheral injection [5]: displays in vivo analgesic activity when injected into the peripheral system
- in vivo analgesic activity (duration) [1]: long lasting
- duration of action (mice [3]; intravenous, comparison of β-endorphin with D-Ala^2 analog): longer than its D-Ala^2 analog
- AD50 (mice [3]; iv injection): 9.4 mg/kg
- analgesic activity after iv injection (mice [3]; iv injection): potent analgesic

Compound: CN1CC[C@]23c4c5ccc(O)c4O[C@H]2[C@@H](O)C=C[C@H]3[C@H]1C5.O=S(=O)(O)O [Morphine sulfate, reference compound]
- AD50 (mice [4]; icv): 0.42 (0.36-0.49) μg/25 g mouse

Compound: [D-Ala^2 ]-enkephalin
- in vivo analgesic activity (duration) [1]: long-lasting analgesia

Compound: [D-Phe^4 ]-βc -endorphin [[D-Phe^4]-βc -EP]
- IC50 ([2]; guinea pig ileum): 670 nM
- Relative Potency [2]: 4
- Relative Potency (analgesic potency) (mice [4]): < 0.3%
- behavioural effect (hyperreactivity) (mice [4]; icv, doses up to 43 μg): hyperreactivity to touch or vocal stimulation
- inhibition of tail-flick response (mice [4]; icv, doses up to 43 μg): not active
- AD50 (mice [4]; icv): > 43 μg/25 g mouse

Compound: [D-Ala^2 ]-β-enkephalinamide
- in vivo analgesic activity (duration) [1]: long-lasting analgesia
- analgesic activity compared with enkephalin ([1]; relative to enkephalin, route not stated at the place): greater analgesic activity

Compound: [D-Tyr^1 ]-βc -endorphin [[D-Tyr^1]-βc -EP]
- IC50 ([2]; guinea pig ileum): 2900 nM
- Relative Potency [2]: ≤ 1
- Relative Potency (analgesic potency) (mice [4]): 0.5%
- AD50 (mice [4]; icv): 22.5 (13.4-37.8) μg/25 g mouse

Compound: [D-Ala^2 ]-βc -endorphin [[D-Ala^2]-βc -EP]
- activity in in vitro assay relative to parent molecule ([2]; guinea pig ileum): 43%
- IC50 ([2]; guinea pig ileum): 63 nM
- Relative Potency [2]: 43
- inhibition of tail-flick response (mice [3]; 25.5 mg/kg): not active
- Relative Potency (analgesic potency) (mice [4]): 100.0%
- Relative Potency (analgesic potency) (mice [4]; listed as [D-Ala^2 ]-βc -endorphin): 100%
- antagonism of analgesic response by naloxone (mice [4]; icv, doses of 0.11 to 0.42 μg): blocked by naloxone
- duration of analgesic response (mice [4]; icv, doses of 0.11 to 0.42 μg): 30 to 90 min
- antagonism of analgesic response by naloxone (mice [4]; icv, higher dose): also blocked by naloxone
- duration of response at higher dose (mice [4]; icv, higher dose): prolonged
- analgesic activity (mice [4]; icv): little alteration in analgesic activity
- analgesic activity (mice [4]; icv, listed as [D-Ala^2 ]-β-endorphin): most significant analgesic activity; also recorded: equipotent to βc -endorphin; also recorded: dose-related increase in analgesic response
- AD50 (mice [4]; icv): 0.11 (0.08-0.17) μg/25 g mouse

Compound: [D-Ala^2 ]-βh -endorphin
- order of activity in the guinea pig ileum assay [2]: same order of activity
- order of activity in the mouse tail flick method (mice [4]): same order of activity

Compound: [D-Phe^4 ]-βh -endorphin
- order of activity in the guinea pig ileum assay [2]: same order of activity
- order of activity in the mouse tail flick method (mice [4]): same order of activity

Compound: [D-Tyr^1 ]-βh -endorphin
- order of activity in the guinea pig ileum assay [2]: same order of activity
- order of activity in the mouse tail flick method (mice [4]): same order of activity

Compound: [D-Met^5 ]-βh -endorphin
- order of activity in the guinea pig ileum assay [2]: same order of activity
- order of activity in the mouse tail flick method (mice [4]): same order of activity

Compound: βc -endorphin: β-endorphin having a sequence derived from camel; synthesized as control (YGGFMTSEKSQTPLVTLFKNAIIKNAHKKGQ; Beta-endorphin; UniProt P01203 1-31, looked up) [reference compound]
- IC50 ([2]; guinea pig ileum): 27 nM
- Relative Potency [2]: 100
- resistance to attack by leucine aminopeptidase (leucine aminopeptidase): substantially more resistant to attack by leucine aminopeptidase than is enkephalin
- Relative Potency (analgesic potency) (mice [4]): 100.0%
- analgesic activity (mice [4]; icv): much more active than morphine
- AD50 (mice [4]; icv): 0.11 (0.07-0.17) μg/25 g mouse
